Key:
[1] = test system: A549-ACE2 infected with SARS-CoV-2; test: cell count relative to DMSO; higher = less toxic; conditions: 24 h
[2] = test system: Caco-2; test: cell viability relative to DMSO; higher = less toxic; conditions: 72 h
[3] = test system: Calu-3; test: as above; conditions: 72 h
[4] = test system: HepG2; test: as above; conditions: 72 h
[5] = test system: U2OS; test: as above; conditions: 72 h
[6] = test system: Vero E6; test: as above; conditions: 72 h
[7] = test system: A549-ACE2 infected with SARS-CoV-2; test: SARS-CoV-2 infection rate relative to DMSO; higher = more infection; conditions: 24 h
[8] = test system: A549-ACE2; test: phospholipidosis EC50; higher = less potent phospholipidosis inducer
[9] = test system: A549-ACE2; test: drug-induced phospholipidosis relative to tamoxifen; higher = more phospholipidosis
[10] = test system: A549-ACE2 infected with SARS-CoV-2; test: morphology score (similarity to uninfected cells); higher = more like uninfected cells; conditions: 24 h
[11] = test system: Calu-3; test: relative viability EC50 (midpoint between 100% and the lowest measured viability); higher = less toxic; conditions: 72 h
[12] = test system: HepG2; test: as above; conditions: 72 h
[13] = test system: Caco-2; test: drug sensitivity score (DSS) for viability; higher = more toxic; extreme values may be limits of the assay; conditions: 72 h
[14] = test system: Calu-3; test: as above; conditions: 72 h
[15] = test system: HepG2; test: as above; conditions: 72 h
[16] = test system: U2OS; test: as above; conditions: 72 h
[17] = test system: Vero E6; test: as above; conditions: 72 h
[18] = test system: Caco-2; test: relative viability EC50 (midpoint between 100% and the lowest measured viability); higher = less toxic; conditions: 72 h
[19] = test system: U2OS; test: as above; conditions: 72 h
[20] = test system: Vero E6; test: as above; conditions: 72 h

CCCCN1[C@@H]2CC[C@H]1C[C@@H](OC(c1ccc(F)cc1)c1ccc(F)cc1)C2 [JHW-007]
Conditions	SARS-CoV-2 infection rate [%]	cell count [%]	cell viability [%]	morphology score	phospholipidosis EC50 [µM]
[1], 0.1 µM	–	102	–	–	–
[1], 0.3 µM	–	106	–	–	–
[1], 1 µM	–	114	–	–	–
[1], 3 µM	–	116	–	–	–
[2], 1 nM	–	–	98.9	–	–
[2], 10 nM	–	–	98.3	–	–
[2], 100 nM	–	–	102	–	–
[2], 1000 nM	–	–	76	–	–
[2], 10000 nM	–	–	61.2	–	–
[3], 1 nM	–	–	96.8	–	–
[3], 10 nM	–	–	96.8	–	–
[3], 100 nM	–	–	98.4	–	–
[3], 1000 nM	–	–	96.6	–	–
[3], 10000 nM	–	–	28	–	–
[4], 1 nM	–	–	96.6	–	–
[4], 10 nM	–	–	95.1	–	–
[4], 100 nM	–	–	96	–	–
[4], 1000 nM	–	–	103	–	–
[4], 10000 nM	–	–	36.1	–	–
[5], 1 nM	–	–	102	–	–
[5], 10 nM	–	–	97.9	–	–
[5], 100 nM	–	–	99.9	–	–
[5], 1000 nM	–	–	91.9	–	–
[5], 10000 nM	–	–	70.6	–	–
[6], 1 nM	–	–	102	–	–
[6], 10 nM	–	–	104	–	–
[6], 100 nM	–	–	100	–	–
[6], 1000 nM	–	–	99.3	–	–
[6], 10000 nM	–	–	61.8	–	–
[7], 0.1 µM	103	–	–	–	–
[7], 0.3 µM	85	–	–	–	–
[7], 1 µM	58	–	–	–	–
[7], 3 µM	20	–	–	–	–
[8], 24 h	–	–	–	–	1.59
[8], 48 h	–	–	–	–	3.06
[8], 72 h	–	–	–	–	3.56
[10], 0.1 µM	–	–	–	0.03	–
[10], 0.3 µM	–	–	–	0.4	–
[10], 1 µM	–	–	–	0.72	–
[10], 3 µM	–	–	–	0.93	–

drug-induced phospholipidosis [%], [9]
Conditions	0.3 µM	0.833333 µM	3.33333 µM	6.66667 µM	10 µM
24 h	6	18.5	80.2	92.2	90
48 h	6.06	12.4	63.9	99	103
72 h	9.39	14.6	61.5	99.8	110

Conditions	drug sensitivity score	relative viability EC50 [µM]
[11]	–	2.8
[12]	–	3.44
[13]	4.8	–
[14]	4.5	–
[15]	3.2	–
[16]	2.4	–
[17]	1.9	–

CCn1c2ccccc2c2cc(CNC)ccc21 [PhiKan-083]
Conditions	SARS-CoV-2 infection rate [%]	cell count [%]	cell viability [%]	morphology score	phospholipidosis EC50 [µM]
[1], 0.3 µM	–	103	–	–	–
[1], 3 µM	–	105	–	–	–
[1], 10 µM	–	117	–	–	–
[1], 30 µM	–	119	–	–	–
[2], 1 nM	–	–	102	–	–
[2], 10 nM	–	–	100	–	–
[2], 100 nM	–	–	102	–	–
[2], 1000 nM	–	–	105	–	–
[2], 10000 nM	–	–	108	–	–
[3], 1 nM	–	–	96.2	–	–
[3], 10 nM	–	–	99.9	–	–
[3], 100 nM	–	–	105	–	–
[3], 1000 nM	–	–	97.6	–	–
[3], 10000 nM	–	–	103	–	–
[4], 1 nM	–	–	98.2	–	–
[4], 10 nM	–	–	106	–	–
[4], 100 nM	–	–	97.4	–	–
[4], 1000 nM	–	–	99.3	–	–
[4], 10000 nM	–	–	68.3	–	–
[5], 1 nM	–	–	99.4	–	–
[5], 10 nM	–	–	100	–	–
[5], 100 nM	–	–	99.2	–	–
[5], 1000 nM	–	–	99.7	–	–
[5], 10000 nM	–	–	98.8	–	–
[6], 1 nM	–	–	98.5	–	–
[6], 10 nM	–	–	103	–	–
[6], 100 nM	–	–	98.7	–	–
[6], 1000 nM	–	–	99.9	–	–
[6], 10000 nM	–	–	90.8	–	–
[7], 0.3 µM	94	–	–	–	–
[7], 3 µM	79	–	–	–	–
[7], 10 µM	51	–	–	–	–
[7], 30 µM	16	–	–	–	–
[8], 24 h	–	–	–	–	5.19
[8], 48 h	–	–	–	–	6.25
[8], 72 h	–	–	–	–	6.91
[10], 0.3 µM	–	–	–	0.23	–
[10], 3 µM	–	–	–	0.46	–
[10], 10 µM	–	–	–	0.75	–
[10], 30 µM	–	–	–	0.82	–

drug-induced phospholipidosis [%], [9]
Conditions	0.3 µM	0.833333 µM	3.33333 µM	6.66667 µM	10 µM	30 µM
24 h	2.5	2.35	26.5	64.2	83.4	97.2
48 h	3.59	3.69	21.8	58.2	75.7	99.9
72 h	3.02	2.71	17.3	49	70.8	95.9

Conditions	drug sensitivity score	relative viability EC50 [µM]
[11]	–	> 10
[13]	0	–
[14]	0	–
[15]	1.5	–
[16]	0	–
[17]	0	–
[18]	–	> 10
[19]	–	> 10
[20]	–	> 10

CN(Cc1ccc(C(C)(C)C)cc1)Cc1cccc2ccccc12 [butenafine]
Conditions	SARS-CoV-2 infection rate, [7] [%]	cell count, [1] [%]	cell viability, [2] [%]	cell viability, [3] [%]	cell viability, [4] [%]	cell viability, [5] [%]	cell viability, [6] [%]	morphology score, [10]
1 nM	–	–	95.3	100	106	94.6	92.8	–
10 nM	–	–	101	102	94.2	98	102	–
100 nM	–	–	92.8	98	103	96.9	95.5	–
0.3 µM	100	101	–	–	–	–	–	0.14
1000 nM	–	–	92.5	94.5	102	96.3	102	–
3 µM	105	83	–	–	–	–	–	-0.05
10 µM	77	107	–	–	–	–	–	0.58
10000 nM	–	–	93.6	98	105	96.1	97.4	–
30 µM	39	110	–	–	–	–	–	0.79

drug-induced phospholipidosis [%], [9]
Conditions	0.3 µM	0.833333 µM	3.33333 µM	6.66667 µM	10 µM	30 µM
24 h	1.71	-2.5	2.21	-2.25	2.84	7.06
48 h	1.14	-3.77	-1.99	-1.09	3.04	15.1
72 h	2.18	-4.26	-1.97	-2.04	0.626	14.1

Conditions	drug sensitivity score	relative viability EC50 [µM]
[11]	–	> 10
[12]	–	> 10
[13]	0	–
[14]	0	–
[15]	0	–
[16]	0	–
[17]	0	–
[18]	–	> 10
[19]	–	> 10
[20]	–	> 10

Reference: the supplement of paper PMC13380429
